The values that follow come from US10772875B2, “Agents enhancing HuR/ELAV protein levels for use in the treatment of BRAF-mutated cancers” (LES HOPITAUX UNIVERSITAIRES DE GENEVE, priority 2017, dated 2020).

One assay relates to A375 cells. Briefly: WST-1 cell proliferation assay, vemurafenib dose response. The following applies: for proliferation rate increase (paradoxical proliferation): A375 cells, 48 h. Type of assay: cell-based. The protocol: The A375 BRAFV600E melanoma cell line was purchased from CLS Cell Lines Service GmbH (Cryovial: 300110). A375 cells were maintained at 37° C. and 5% CO2 in a humidified atmosphere and grown in DMEM (Dulbecco's modified Eagle's medium) growth media supplemented with 10% FBS (fetal bovine serum), 2 mM glutamine, 1% penicillin/streptomycin. Cells were verified to be mycoplasma-free (PanReac Applichem mycoplasma test kit). Cells were treated with the BRAF inhibitor, vemurafenib (Selleckchem), also known as N-[3-[5-(4-chlorophenyl)-1H-pyrrolo[2,3-b]pyridine-3-carbonyl]-2,4-difluorophenyl]propane-1-sulfonamide and dissolved in dimethyl sulphoxide (DMSO, 10 mM storing concentration).
Cell proliferation was measured using WST-1 reagent (Roche applied Science). Melanoma cells were plated (2500 cells per well) in 96-well tissue culture plates. After 24 h, the cells were treated with vemurafenib or DMSO (excipient) at the indicated concentrations in triplicate or quadruplicate. The excipient is used at the same dilution as the one necessary to get the desired concentration of vemurafenib, in that case for example if 1/1000 dilution is necessary to get a 100 nM final concentration of vemurafenib, then the DMSO pure stock solution will be also diluted to 1/1000. For the standard proliferation assays, after the treatment period of 48 h, WST-reagent (20 μl, 10% of the final volume) was added to the wells and incubated at 37° C. for 1 to 2 h depending on the experiment in order to stay within the linear range of the assay. The plates were read at 450(−650) nm on a Vmax kinetic ELISA Microplate Reader (Molecular Devices). Cell proliferation is expressed as percentage of the absorbance compared with the DMSO-treated cells. Proliferation assays for overexpression experiments were scheduled as follows: A375 cells were plated (800000 cells per well) in six-well culture plates. After 24 h, the cells were infected overnight at indicated m.o.i. […]

For assay [1], the system named is BRAF-mutant colorectal patients. The following applies: BRAF-mutant colorectal patients (Kopetz et al., 2010); cited from earlier work.
A further assay deals with HuR in MALME-3M cells. Briefly: Western blot of nuclear and cytoplasmic fractions for HuR expression, MALME-3M. Format: cell-based, human. The note with it: for HuR cytoplasmic content: C1 5 mM or 1 mM for 6 days, C2 15 μM 24 h. An excerpt: (§1) Some HIV protease inhibitors (such as Nelfinavir) have been used in combination with a BRAF inhibitor to potentiate its effect (Smith et al., 2016, cancer cell, 29(3): 270-284) and some HIV protease inhibitors have (such as Lopinavir) been reported as increasing the cytosolic translocation of HuR (Chen et al., 2009, Biochem Pharmacol., 78(1): 70-77). Further, some polyamine depleting agents i.e. agents reducing the cellular content in polyamines (α-difluoromethylornithine (DFMO), also named Eflornithin) have been reported to modulate cytoplasmic HuR levels (Zou et al., 2006, J. Biol. Chem., 281(28):19387-94). Therefore, a […], Eflornithine (DFMO) and a HIV protease inhibitor, lopinavir ((2S)-N-[(2S,4S,5S)-5-[[2-(2,6-dimethylphenoxy)acetyl]amino]-4-hydroxy-1,6-diphenylhexan-2-yl]-3-methyl-2-(2-oxo-1,3-diazinan-1-yl)butanamide) were tested as comparative examples ((comparative compounds C1 and C2, respectively)) for their ability to increase HuR cytoplasmic localization in melanoma (A375 and the MALME-3M cells (melanoma BRAF mutated sensitive cell lines) cell lines as follows and analysis was conducted by Western blot analysis as described in Example 1 [, except that the cells were treated with comparative compound C1 dissolved in DMSO at 5 mM or at 1 mM for 6 consecutive days, where fresh medium with C1 was added in 6 well plates every day and the cells were split every 3 days or the cells were treated with C2 at 15 μM dissolved in DMSO for 24 h. Cell fractionation was conducted using the NE-PER Nuclear and Cytoplasmic Extraction Reagents (ThermoFisher Scientific) according to the manufacturer's instructions. Nuclear (N) and cytoplasmic (C) fractions were analyzed for HuR expression by western blot as described above. […] As a comparison of successful increase in HuR cytoplasmic content, western blot analysis was performed on cells infected with aG or aH at m.o.i 5, 25 or 125 as described in Example1 (FIG. 8C).
(§2) Western blot analysis was conducted as described in Examples 1 and 5, except that cells were treated with LiCl at 1 mM (for 6 h for A375 and for 24 h for MALME-3M cells) before cell lysis and analysis. […] Considering that HuR is mainly a nuclear protein, the absence of any nuclear contamination in the cytoplasm as observed here fulfils the experimental requirements. The increased cytoplasmic expression of HuR was quantified as being respectively 80% and 50% increased in A375 and Malme 3M melanoma cells using an image quantification software (ImageJ).
In general terms: Immunoblotting shows a protein as a band on a membrane.

The test system of assay [2] is HuR in A375 melanoma cells. The assay can be described thus: Whole cell extract western blot on HuR-expressing adenovirus-infected A375 cells. The note with it: Li 1 mM and 10 mM.
Description: Western blot analysis was performed on cell extracts of A375 cells at 48 h post-infection. Whole cell lysates were prepared using RIPA (radioimmunoprecipitation assay) buffer (PBS (phosphate-buffered saline), 1% NP40 (nonyl phenoxypolyethoxylethanol 40), 0.1% sodium deoxycholate, 0.1% SDS (sodium dodecyl sulphate)) supplemented with fresh protease and phosphatase inhibitors (easy packs tablets, Roche). Cell lysates were quantified for protein content using Bio-Rad DC (detergent compatible) kit. Protein samples were resolved on 12.5% polyacrylamide Bis-Tris gel (Bio-rad) and then transferred to nitrocellulose membrane. After saturation, the membranes were incubated overnight with the anti-HuR mouse monoclonal antibody (Santa-Cruz/3A2-sc-5261, 1:1000) raised against full-length HuR of human origin. The secondary antibody conjugated to horseradish-peroxidase (Bio-Rad goat anti-mouse IgG-HRP, 1:3000) was incubated at room temperature for 30 minutes. Blots were developed using the ECL (enhanced chemiluminescent) system (Thermo-Scientific) according to the manufacturer's instructions.
In a further assay the test system is HuR in A375 cells. Briefly: Western blot of nuclear and cytoplasmic fractions for HuR expression, A375. Type of assay: cell-based, human. The note with it: for HuR cytoplasmic content: C1 5 mM or 1 mM for 6 days, C2 15 μM 24 h.
Source text: as §1, §2

As for `CCCS(=O)(=O)Nc1ccc(F)c(C(=O)c2c[nH]c3ncc(-c4ccc(Cl)cc4)cc23)c1F` [vemurafenib, N-{3-[5-(4-chlorophenyl)-1H-pyrrolo[2,3-b]pyridine-3-carbonyl]-2,4-difluorophenyl}propane-1-sulfonamide], the figures for the “proliferation rate increase (paradoxical proliferation)” value with A375 cells (20 nM vemurafenib) and in the assay with A375 cells (100 nM vemurafenib) were “up to 50%” and “up to 25%”, respectively. The vemurafenib-induced paradoxical proliferation result in the assay on A375 cells (aH cells (HuR-overexpressing A375), in contrast to aG or non-infected cells) is listed as “no vemurafenib-induced paradoxical proliferation was observed”. For the same compound, the patients who respond in assay [1] is listed as roughly 5%.

For `[Cl-].[Li+]` [LiCl, Lithium Chloride], the “total amount of HuR expression and HuR cytoplasmic content” value is “increase of both total amount of HuR expression and HuR cytoplasmic content” with HuR in MALME-3M cells (MALME-3M cells, LiCl 1 mM); “increase of both total amount of HuR expression and HuR cytoplasmic content” in the assay on HuR in A375 cells (LiCl 1 mM). The “increased cytoplasmic expression of HuR (ImageJ quantification)” value with HuR in MALME-3M cells (Malme 3M cells, LiCl 1 mM, 24 h) amounted to 50%; in the assay on HuR in A375 cells (LiCl 1 mM, 6 h) it was 80%. Besides, the “total amount of HuR expression (endogenous and exogenous epitope-tagged HuR)” value in assay [2] is listed as “clearly increases the total amount of HuR expression with a dose effect”.

Consider `Cc1cccc(C)c1OCC(=O)N[C@@H](Cc1ccccc1)[C@@H](O)C[C@H](Cc1ccccc1)NC(=O)[C@H](C(C)C)N1CCCNC1=O` [C2, (2S)-N-[(2S,4S,5S)-5-[[2-(2,6-dimethylphenoxy)acetyl]amino]-4-hydroxy-1,6-diphenylhexan-2-yl]-3-methyl-2-(2-oxo-1,3-diazinan-1-yl)butanamide], for which the HuR cytoplasmic content entry with HuR in MALME-3M cells (MALME-3M cells) and in the assay on HuR in A375 cells was “no increase of HuR cytoplasmic content” in each case.

Regarding `NCCC[C@](N)(C(=O)O)C(F)F` [C1, α-difluoromethylornithine], the HuR cytoplasmic content entry in the assay with HuR in MALME-3M cells (MALME-3M cells) and in the assay on HuR in A375 cells was “no increase of HuR cytoplasmic content” each time.
